According to patent US8236792B2, “Substituted pyrrolidine amides as modulators of the histamine H3 receptor” (Janssen Pharmaceutica NV, priority 2008, dated 2012):

Target: T1, cloned human H3 receptors (Homo sapiens, UniProt Q9Y5N1)
T1 construct: expressed in transfected cells
Test: H3 Receptor Binding (Human) Method 1
Settings: receptor stably expressed in SK-N-MC cells, free base forms, average of results

T1 sequence (Q9Y5N1 whole entry): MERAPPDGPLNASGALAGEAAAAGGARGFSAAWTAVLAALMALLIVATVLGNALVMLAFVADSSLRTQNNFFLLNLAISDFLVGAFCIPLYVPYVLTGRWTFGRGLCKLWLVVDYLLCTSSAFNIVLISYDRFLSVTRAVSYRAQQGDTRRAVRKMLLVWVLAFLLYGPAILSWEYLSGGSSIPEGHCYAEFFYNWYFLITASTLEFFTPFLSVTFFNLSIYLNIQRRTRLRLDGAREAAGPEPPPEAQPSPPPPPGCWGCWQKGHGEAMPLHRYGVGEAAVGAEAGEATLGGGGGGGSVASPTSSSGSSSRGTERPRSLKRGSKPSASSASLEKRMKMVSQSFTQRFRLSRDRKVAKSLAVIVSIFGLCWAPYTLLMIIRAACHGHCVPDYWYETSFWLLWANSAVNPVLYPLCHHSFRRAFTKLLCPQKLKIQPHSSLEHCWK

SMILES	Ki [nM]
O=C([C@@H]1C[C@H](Oc2ccc(F)cc2)CN1)N1CCN(C2CCC2)CC1 [Example 63, (2S,4S)-2-(4-Cyclobutyl-piperazine-1-carbonyl)-4-(4-fluoro-phenoxy)-pyrrolidine]	284
O=C([C@@H]1C[C@H](Oc2ccc(Cl)c(Cl)c2)CN1)N1CCCN(C2CCC2)CC1 [Example 93, (2S,4S)-2-(4-Cyclobutyl-[1,4]diazepane-1-carbonyl)-4-(3,4-dichloro-phenoxy)-pyrrolidine]	88
CSc1ccc(O[C@@H]2CN[C@H](C(=O)N3CCCN(C4CCC4)CC3)C2)cc1 [Example 97, (2S,4S)-2-(4-Cyclobutyl-[1,4]diazepane-1-carbonyl)-4-(4-methylsulfanyl-phenoxy)-pyrrolidine]	89
CN1C[C@@H](Oc2ccc(F)cc2)C[C@H]1C(=O)N1CCN(C2CCC2)CC1 [Example 107, (2S,4S)-1-Methyl-2-(4-cyclobutyl-piperazine-1-carbonyl)-4-(4-fluoro-phenoxy)-pyrrolidine]	523
CCC(=O)N1C[C@@H](Oc2ccc(F)cc2)C[C@H]1C(=O)N1CCCN(C2CCC2)CC1 [Example 116, (2S,4S)-1-[2-(4-Cyclobutyl-[1,4]diazepane-1-carbonyl)-4-(4-fluoro-phenoxy)-pyrrolidin-1-yl]-propan-1-one]	152
CC(C)C(=O)N1C[C@@H](Oc2ccc(F)cc2)C[C@H]1C(=O)N1CCCN(C2CCC2)CC1 [Example 117, (2S,4S)-1-[2-(4-Cyclobutyl-[1,4]diazepane-1-carbonyl)-4-(4-fluoro-phenoxy)pyrrolidin-1-yl]-2-methyl-propan-1-one]	796
CC(C)(C)CC(=O)N1C[C@@H](Oc2ccc(F)cc2)C[C@H]1C(=O)N1CCCN(C2CCC2)CC1 [Example 118, (2S,4S)-1-[2-(4-Cyclobutyl-[1,4]diazepane-1-carbonyl)-4-(4-fluoro-phenoxy)-pyrrolidin-1-yl]-3,3-dimethyl-butan-1-one]	816
CC(=O)N1C[C@@H](Oc2ccc(F)cc2)C[C@H]1C(=O)N1CCN(C2CCC2)CC1 [Example 119, (2S,4S)-1-[2-(4-Cyclobutyl-piperazine-1-carbonyl)-4-(4-fluoro-phenoxy)-pyrrolidin-1-yl]-ethanone]	300
CS(=O)(=O)N1C[C@@H](Oc2ccc(F)cc2)C[C@H]1C(=O)N1CCCN(C2CCC2)CC1 [Example 137, (2S,4S)-1-Methanesulfonyl-2-(4-cyclobutyl-[1,4]diazepane-1-carbonyl)-4-(4-fluoro-phenoxy)-pyrrolidine]	206
CS(=O)(=O)N1C[C@@H](Oc2ccc(F)cc2)C[C@H]1C(=O)N1CCN(C2CCC2)CC1 [Example 138, (2S,4S)-2-(4-Cyclobutyl-piperazin-1-yl)-[4-(4-fluoro-phenoxy)-1-methanesulfonyl-pyrrolidin-2-yl]-methanone]	> 10000
O=C([C@H]1C[C@@H](OCc2cccc(F)c2)CN1)N1CCCN(C2CCC2)CC1 [Example 154, (2R,4R)-2-(4-Cyclobutyl-[1,4]diazepane-1-carbonyl)-4-(3-fluoro-benzyloxy)-pyrrolidine]	149
O=C([C@H]1C[C@@H](OCc2ccc(F)cc2)CN1)N1CCCN(C2CCC2)CC1 [Example 155, (2R,4R)-2-(4-Cyclobutyl-[1,4]diazepane-1-carbonyl)-4-(4-fluoro-benzyloxy)-pyrrolidine]	160

Molecules with a lower Ki, results first:

Ki [nM]	SMILES
3	CC(C)(C)OC(=O)N1C[C@@H](Oc2ccc(C#N)cc2)C[C@@H]1C(=O)N1CCCN(C2CCC2)CC1 [Example 16, (2R,4S)-4-(4-Cyano-phenoxy)-2-(4-cyclobutyl-[1,4]diazepane-1-carbonyl)-pyrrolidine-1-carboxylic acid tert-butyl ester]
3	CC(C)(C)OC(=O)N1C[C@@H](Oc2cccc(C#N)c2)C[C@@H]1C(=O)N1CCCN(C2CCC2)CC1 [Example 22, (2R,4S)-4-(3-Cyano-phenoxy)-2-(4-cyclobutyl-[1,4]diazepane-1-carbonyl)-pyrrolidine-1-carboxylic acid tert-butyl ester]
24	CC(C)(C)OC(=O)N1CC(Oc2cccc(Cl)c2)C[C@H]1C(=O)N1CCCN(C2CCC2)CC1 (stereo partly drawn) [Example 42, (2S)-4-(3-Chloro-phenoxy)-2-(4-cyclobutyl-[1,4]diazepane-1-carbonyl)-pyrrolidine-1-carboxylic acid tert-butyl ester]
33	CC(C)(C)OC(=O)N1CC(Oc2ccc(Cl)cc2)C[C@H]1C(=O)N1CCCN(C2CCC2)CC1 (stereo partly drawn) [Example 43, (2S)-4-(4-Chloro-phenoxy)-2-(4-cyclobutyl-[1,4]diazepane-1-carbonyl)-pyrrolidine-1-carboxylic acid tert-butyl ester]
52	CC(C)(C)OC(=O)N1CC(Oc2ccc(Cl)c(Cl)c2)C[C@H]1C(=O)N1CCCN(C2CCC2)CC1 (stereo partly drawn) [Example 44, (2S)-2-(4-Cyclobutyl-[1,4]diazepane-1-carbonyl)-4-(3,4-dichloro-phenoxy)-pyrrolidine-1-carboxylic acid tert-butyl ester]
8	CC(C)(C)OC(=O)N1CC(Oc2ccc(C#N)cc2)C[C@H]1C(=O)N1CCCN(C2CCC2)CC1 (stereo partly drawn) [Example 45, (2S)-4-(4-Cyano-phenoxy)-2-(4-cyclobutyl-[1,4]diazepane-1-carbonyl)-pyrrolidine-1-carboxylic acid tert-butyl ester]
35	CSc1ccc(OC2C[C@@H](C(=O)N3CCCN(C4CCC4)CC3)N(C(=O)OC(C)(C)C)C2)cc1 (stereo partly drawn) [Example 46, (2S)-2-(4-Cyclobutyl-[1,4]diazepane-1-carbonyl)-4-(4-methylsulfanyl-phenoxy)-pyrrolidine-1-carboxylic acid tert-butyl ester]
50	CC(C)(C)OC(=O)N1CC(Oc2ccccc2)C[C@H]1C(=O)N1CCCN(C2CCC2)CC1 (stereo partly drawn) [Example 47, (2S)-2-(4-Cyclobutyl-[1,4]diazepane-1-carbonyl)-4-phenoxy-pyrrolidine-1-carboxylic acid tert-butyl ester]
16	CC(C)O[C@@H]1C[C@@H](C(=O)N2CCCN(C3CCC3)CC2)N(C(=O)OC(C)(C)C)C1 [Example 59, (2S,4R)-2-(4-Cyclobutyl-[1,4]diazepane-1-carbonyl)-4-isopropoxy-pyrrolidine-1-carboxylic acid tert-butyl ester]
51	O=C([C@@H]1C[C@@H](Oc2ccc(Cl)c(Cl)c2)CN1)N1CCCN(C2CCC2)CC1 [Example 92, (2S,4R)-2-(4-Cyclobutyl-[1,4]diazepane-1-carbonyl)-4-(3,4-dichloro-phenoxy)-pyrrolidine]
77	CC(C)(C)OC(=O)N1C[C@H](OCc2cccc(F)c2)C[C@@H]1C(=O)N1CCCN(C2CCC2)CC1 [Example 150, (2R,4R)-2-(4-Cyclobutyl-[1,4]diazepane-1-carbonyl)-4-(3-fluoro-benzyloxy)-pyrrolidine-1-carboxylic acid tert-butyl ester]
34	CC(C)(C)OC(=O)N1C[C@H](OCc2ccc(F)cc2)C[C@@H]1C(=O)N1CCCN(C2CCC2)CC1 [Example 151, (2R,4R)-2-(4-Cyclobutyl-[1,4]diazepane-1-carbonyl)-4-(4-fluoro-benzyloxy)-pyrrolidine-1-carboxylic acid tert-butyl ester]

Target: human H3 receptor (Homo sapiens, UniProt Q9Y5N1)
Sequence (Q9Y5N1 whole entry): as above
Test: H3 Receptor Binding (Human) Method 2, [125I]-iodoproxyfan competitive radioligand binding
Parameters: expressed in transfected cells
Settings: read-out: Human H3 Ki

Ki [nM]	SMILES
2	CC(C)(C)OC(=O)N1C[C@@H](Oc2ccc(C#N)cc2)C[C@@H]1C(=O)N1CCCN(C2CCC2)CC1 [Example 16, (2R,4S)-4-(4-Cyano-phenoxy)-2-(4-cyclobutyl-[1,4]diazepane-1-carbonyl)-pyrrolidine-1-carboxylic acid tert-butyl ester]
